From patent US11034685B2, “Aminopyridine derivatives as TAM family kinase inhibitors” (SignalChem Lifesciences Corporation, priority 2013, dated 2021)

Columns and labels:
Type in all cases: biochemical
[1] = biological target: T1, Recombinant human Tyro3 (455-end) (Homo sapiens, UniProt Q06418); test: Kinase enzymatic activity assay ([33P]-ATP phosphate transfer), Tyro3; conditions: inhibitory activity on Tyro3; class symbols
T1 construct: GST (N); made in house; host or cells: Sf9 insect cells (baculovirus)
T1 sequence (Q06418 455-890 limits assumed): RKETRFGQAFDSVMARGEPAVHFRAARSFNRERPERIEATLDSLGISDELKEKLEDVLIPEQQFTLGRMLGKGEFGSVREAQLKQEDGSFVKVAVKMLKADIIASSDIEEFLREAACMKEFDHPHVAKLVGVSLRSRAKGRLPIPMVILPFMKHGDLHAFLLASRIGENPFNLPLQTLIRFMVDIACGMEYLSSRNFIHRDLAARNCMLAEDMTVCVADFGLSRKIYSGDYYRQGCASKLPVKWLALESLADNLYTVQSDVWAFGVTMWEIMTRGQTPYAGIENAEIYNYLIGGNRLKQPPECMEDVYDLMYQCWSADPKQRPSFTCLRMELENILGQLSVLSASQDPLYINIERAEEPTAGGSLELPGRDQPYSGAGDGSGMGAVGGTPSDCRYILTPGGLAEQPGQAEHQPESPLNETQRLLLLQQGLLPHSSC
Procedure: (§1) Preparation of Active Recombinant Kinase Proteins:
(§2) Recombinant human Tyro3 (455-end, the gene accession number NM_006293), human Axl (473-end, the gene accession number NM_021913) and human Mer (578-872, the gene accession number NM_006343) were independently expressed by baculovirus in Sf9 insect cells using an N-terminal GST tag. The recombinant proteins were stored at −70° C. in a medium containing 50 mM Tris-HCl, pH 7.5, 150 mM NaCl, 10 mM glutathione, 0.1 mM EDTA, 0.25 mM DTT, 0.1 mM PMSF and 25% glycerol. The recombinant proteins were aliquoted into smaller quantities after centrifugation to avoid repeated handling and multiple freeze/thaw cycles for the most favorable performance.
(§3) Preparation of Assay Reagents:
(§4) Kinase Assay Buffer: This buffer solution consisted of the following components: 25 mM MOPS, pH 7.2, 12.5 mM β-glycerol-phosphate, 25 mM MgCl2, 5 mM EGTA, 2 mM EDTA and DTT 0.25 mM which was added prior to use.
(§5) Kinase Dilution Buffer: Kinase Assay Buffer was diluted at a 1:4 ratio (5× dilution) with distilled water.
(§6) [^33P]-ATP assay cocktail: In a designated radioactive working area, a 250 μM [^33P]-ATP assay cocktail was prepared by the addition of the following components: 150 μL of 10 mM ATP stock solution, 100 μL [^33P]-ATP (1 mci/100 μL), 5.75 mL of kinase assay buffer. This solution was stored in 1 mL aliquots at −20 OC.
(§7) ATP stock solution (10 mM): The ATP stock solution was prepared by dissolving 55 mg of ATP in 10 mL of kinase assay buffer. It was stored in 200 μL aliquots at −20° C.
(§8) Active Kinase Stock Solution: The active recombinant kinase protein (0.1 μg/μL) was diluted with Kinase Dilution Buffer and the activity was assayed using a serial dilution method. The specific activity is expressed in nmoL/min/mg.
(§9) Substrates: poly(4:1 glu:tyr) is the substrate used for each kinase Tyro3, Axl and Mer: The peptide substrate was dissolved in water to give the final concentration of 1 mg/mL.
(§10) Test compound solution: Test compound was dissolved in DMSO to obtain a 10 mM solution. The assay solution was prepared by adding 5 μL of this solution to […] of 10% DMSO/water to obtain the final concentration of 50 μM.
(§11) The enzymatic activity of all three kinases was determined as follows. Using a 96-well plate, the wells were divided into three categories: Blank wells, […] and Test wells. In Test wells, 5 μL of the test compound solution and 5 μL of the substrate solution were added. In Control wells, 5 μL of 10% DMSO/water and 5 μL of the substrate solution were added. In Blank wells, 10 μL of 10% DMSO/water was added. To each well was added 10 μL of Active Kinase Stock Solution to make up the volume in each well to 20 μL. All test samples, controls and blanks were run in duplicate. The reaction was initiated by the addition of 5 μL of [^33P]-ATP assay cocktail, bringing the final volume up to 25 μL in every well. The mixture was incubated at room temperature for 30 minutes. The reaction was terminated by transferring 10 μL of the reaction mixture into a Millipore MultiScreen filter plate (cat. number MSPHN6B50). The filter plate was washed in a 1% phosphoric acid solution with constant gentle shaking for 15 minutes and this step was repeated once. After the plate was dried in air, scintillation fluid was added to each well and the radioactivity in each well in CPM was counted by a Microbeta TriLux. The corrected CPM in each test well was determined by subtracting the average value of Blank well values. Percentage of inhibition of the kinase enzymatic activity by the test compound was determined using the following formula: […]
(§12) The IC50 values were determined in a similar way following a serial dilution of the test compound. The percentage of inhibition at each concentration was calculated following the above formula. The IC50 was estimated from the curve of % Inhibition against Concentration in log unit using Prism 5, version 5.01.

human Mer (578-872) = biological target: T2, human Mer (578-872) (Homo sapiens, UniProt Q12866); test: Kinase enzymatic activity assay ([33P]-ATP phosphate transfer), Mer; conditions: inhibitory activity on Mer; class symbols
T2 construct: GST (N); made in house; host or cells: Sf9 insect cells (baculovirus)
T2 sequence (Q12866 578-872): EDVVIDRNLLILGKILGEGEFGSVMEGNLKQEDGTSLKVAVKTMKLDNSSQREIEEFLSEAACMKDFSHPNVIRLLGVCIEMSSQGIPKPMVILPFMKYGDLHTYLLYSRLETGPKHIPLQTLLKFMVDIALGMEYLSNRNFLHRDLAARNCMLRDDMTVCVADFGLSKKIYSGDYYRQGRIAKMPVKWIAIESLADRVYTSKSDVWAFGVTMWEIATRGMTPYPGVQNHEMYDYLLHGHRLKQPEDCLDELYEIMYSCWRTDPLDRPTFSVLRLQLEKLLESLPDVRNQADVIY
Procedure: as §1, §2, §3, §4, §5, §6, §7, §8, §9, §10, §11, §12

human Axl (473-end) = biological target: T3, human Axl (473-end) (Homo sapiens, UniProt P30530); test: Kinase enzymatic activity assay ([33P]-ATP phosphate transfer), Axl; conditions: inhibitory activity on Axl; class symbols
T3 construct: GST (N); made in house; host or cells: Sf9 insect cells (baculovirus)
T3 sequence (P30530 473-894 limits assumed): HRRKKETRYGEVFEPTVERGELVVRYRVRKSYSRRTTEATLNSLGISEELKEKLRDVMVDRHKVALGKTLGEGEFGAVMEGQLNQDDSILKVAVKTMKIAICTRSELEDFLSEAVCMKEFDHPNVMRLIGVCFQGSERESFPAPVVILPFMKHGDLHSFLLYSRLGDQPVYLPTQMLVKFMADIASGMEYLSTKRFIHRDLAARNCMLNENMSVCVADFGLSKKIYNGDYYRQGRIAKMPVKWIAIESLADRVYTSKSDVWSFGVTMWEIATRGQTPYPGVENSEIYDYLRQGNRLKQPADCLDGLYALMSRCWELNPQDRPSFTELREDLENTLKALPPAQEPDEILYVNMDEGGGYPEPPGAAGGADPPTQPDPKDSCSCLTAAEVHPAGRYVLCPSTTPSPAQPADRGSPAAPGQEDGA
Procedure: as §1, §2, §3, §4, §5, §6, §7, §8, §9, §10, §11, §12

| IC50 [1] [nM] | IC50 (human Mer (578-872)) [nM] | IC50 (human Axl (473-end)) [nM] | Compound |
| --- | --- | --- | --- |
| > 10000 | > 10000 | > 10000 | CC(=O)N1CCC(n2cc(-c3cnc(N)c(-c4ncc(-c5ccc(Cl)cc5)o4)c3)cn2)CC1 [1-(4-(4-(6-amino-5-(5-(4-chlorophenyl)oxazol-2-yl)pyridin-3-yl)-1H-pyrazol-1-yl)piperidin-1-yl)ethanone] |
| < 500 | < 500 | < 500 | Nc1ncc(-c2cnn(C3CCN(C(=O)c4ccccc4)CC3)c2)cc1-c1nnc(-c2c(Cl)cccc2Cl)o1 [(4-(4-(6-amino-5-(5-(2,6-dichlorophenyl)-1,3,4-oxadiazol-2-yl)pyridin-3-yl)-1H-pyrazol-1-yl)piperidin-1-yl)(phenyl)methanone] |
| < 500 | < 500 | < 500 | Nc1ncc(-c2cnn(C3CCNCC3)c2)cc1-c1nnc(C2CCCCC2)o1 |
| 1000 to 10000 | 1000 to 10000 | 1000 to 10000 | Nc1ncc(-c2cnn(C3CCN(C(=O)c4ccccc4)CC3)c2)cc1-c1nc(-c2ccccc2)no1 [(4-(4-(6-amino-5-(3-phenyl-1,2,4-oxadiazol-5-yl)pyridin-3-yl)-1H-pyrazol-1-yl)piperidin-1-yl)(phenyl)methanone] |
| < 500 | < 500 | < 500 | Nc1ncc(-c2cn[nH]c2)cc1-c1nnc(-c2c(Cl)cccc2Cl)o1 [3-(5-(2,6-dichlorophenyl)-1,3,4-oxadiazol-2-yl)-5-(1H-pyrazol-4-yl)pyridin-2-amine] |
| < 500 | < 500 | < 500 | CN1CCC(n2cc(-c3cnc(N)c(-c4nnc(-c5c(Cl)cccc5Cl)o4)c3)cn2)CC1 [3-(5-(2,6-dichlorophenyl)-1,3,4-oxadiazol-2-yl)-5-(1-(1-methylpiperidin-4-yl)-1H-pyrazol-4-yl)pyridin-2-amine] |
| < 500 | < 500 | < 500 | CC(C)(C)c1ccc(-c2nnc(-c3cc(-c4cnn(C5CCNCC5)c4)cnc3N)o2)cc1 [3-(5-(4-(tert-butyl)phenyl)-1,3,4-oxadiazol-2-yl)-5-(1-(piperidin-4-yl)-1H-pyrazol-4-yl)pyridin-2-amine] |
| 1000 to 10000 | 1000 to 10000 | 500 to 1000 | Nc1ncc(-c2cnn(C3CCN(C(=O)Cc4ccccc4)CC3)c2)cc1-c1nc(-c2ccccc2)no1 [1-(4-(4-(6-amino-5-(3-phenyl-1,2,4-oxadiazol-5-yl)pyridin-3-yl)-1H-pyrazol-1-yl)piperidin-1-yl)-2-phenylethanone] |
| 1000 to 10000 | > 10000 | 1000 to 10000 | Nc1ncc(-c2cnn(C3CCCCC3)c2)cc1-c1nc(-c2ccccc2)no1 [5-(1-cyclohexyl-1H-pyrazol-4-yl)-3-(3-phenyl-1,2,4-oxadiazol-5-yl)pyridin-2-amine] |
| 1000 to 10000 | > 10000 | < 500 | CC(C)(C)OC(=O)N1CCC(n2cc(-c3cnc(N)c(-c4nnc(-c5nc(C(F)(F)F)cs5)o4)c3)cn2)CC1 [tert-butyl 4-(4-(6-amino-5-(5-(4-(trifluoromethyl)-thiazol-2-yl)-1,3,4-oxadiazol-2-yl)pyridin-3-yl)-1H-pyrazol-1-yl)piperidine-1-carboxylate] |
| < 500 | < 500 | < 500 | Nc1ncc(-c2cnn(C3CCOCC3)c2)cc1-c1nnc(-c2c(Cl)cccc2Cl)o1 [3-(5-(2,6-dichlorophenyl)-1,3,4-oxadiazol-2-yl)-5-(1-(tetrahydro-2H-pyran-4-yl)-1H-pyrazol-4-yl)pyridin-2-amine] |
| < 500 | < 500 | < 500 | Nc1ncc(-c2cnn(C3CCNCC3)c2)cc1-c1nnc(-c2ccccc2)o1 [3-(5-phenyl-1,3,4-oxadiazol-2-yl)-5-(1-(piperidin-4-yl)-1H-pyrazol-4-yl)pyridin-2-amine] |
| 1000 to 10000 | 1000 to 10000 | 1000 to 10000 | Nc1ncc(-c2cnn(C3CCCCC3)c2)cc1-c1cc(-c2ccccc2)on1 [5-(1-cyclohexyl-1H-pyrazol-4-yl)-3-(5-phenylisoxazol-3-yl)pyridin-2-amine] |
| < 500 | < 500 | < 500 | Nc1ncc(-c2cnn(C3CCNCC3)c2)cc1-c1nnc(-c2cccnc2)o1 [5-(1-(piperidin-4-yl)-1H-pyrazol-4-yl)-3-(5-(pyridin-3-yl)-1,3,4-oxadiazol-2-yl)pyridin-2-amine] |
| < 500 | < 500 | < 500 | Nc1ncc(-c2cnn(C3CCNCC3)c2)cc1-c1nnc(Cc2ccccc2)o1 [3-(5-benzyl-1,3,4-oxadiazol-2-yl)-5-(1-(piperidin-4-yl)-1H-pyrazol-4-yl)pyridin-2-amine] |
| 1000 to 10000 | 500 to 1000 | < 500 | CC(C)(C)OC(=O)N1CCC(n2cc(-c3cnc(N)c(-c4nnc(CC5CC5)o4)c3)cn2)CC1 [tert-butyl 4-(4-(6-amino-5-(5-(cyclopropylmethyl)-1,3,4-oxadiazol-2-yl)pyridin-3-yl)-1H-pyrazol-1-yl)piperidine-1-carboxylate] |
| < 500 | < 500 | < 500 | Nc1ncc(-c2cnn(C3CCNCC3)c2)cc1-c1nnc(CC2CC2)o1 [3-(5-(cyclopropylmethyl)-1,3,4-oxadiazol-2-yl)-5-(1-(piperidin-4-yl)-1H-pyrazol-4-yl)pyridin-2-amine] |
